Among the data in US9175003B2, “Substituted azoanthracene derivatives and intermediates for preparation thereof” (TransTech Pharma, LLC, priority 2009, dated 2015) are EC50 values, retold here.

The structures appear in SMILES notation.

For this experiment, the target named is human GLP-1 receptor (Homo sapiens (Human), UniProt P43220). As to conditions: read-out: Mean EC50; cAMP, HTRF detection, 30 min at 37° C., HEK-293 cells expressing cloned human GLP-1 receptor.
Sequence of human GLP-1 receptor (P43220 24-463): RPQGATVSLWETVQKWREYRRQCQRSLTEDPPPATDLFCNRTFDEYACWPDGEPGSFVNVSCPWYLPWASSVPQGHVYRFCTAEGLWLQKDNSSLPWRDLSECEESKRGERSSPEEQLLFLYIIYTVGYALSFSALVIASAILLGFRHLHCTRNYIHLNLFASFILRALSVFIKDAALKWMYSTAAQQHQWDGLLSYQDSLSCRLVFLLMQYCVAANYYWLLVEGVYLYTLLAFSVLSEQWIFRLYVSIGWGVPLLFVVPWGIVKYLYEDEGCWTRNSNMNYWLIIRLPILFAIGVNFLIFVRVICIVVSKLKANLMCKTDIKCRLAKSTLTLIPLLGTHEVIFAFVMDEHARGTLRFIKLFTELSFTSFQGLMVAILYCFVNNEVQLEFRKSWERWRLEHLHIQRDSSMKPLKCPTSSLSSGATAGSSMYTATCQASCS
On to `CCOc1ccc([C@H]2COc3cc4c(cc3O2)CN([C@@H](CC)c2ccccc2)[C@H](C(=O)N[C@@H](Cc2ccc(-c3ccnc(C)c3C)cc2)C(=O)O)C4)cc1` [Example 170, (S)-3-[4-(2,3-Dimethyl-pyridin-4-yl)-phenyl]-2-{[(3S,8S)-3-(4-ethoxy-phenyl)-7-((S)-1-phenyl-propyl)-2,3,6,7,8,9-hexahydro-[1,4]dioxino[2,3-g]isoquinoline-8-carbonyl]-amino}-propionic acid], for which the EC50 came out at 0.538 µM.
In the case of `CC[C@@H](c1ccccc1)N1Cc2cc3c(cc2C[C@H]1C(=O)N[C@@H](Cc1ccc(-c2ccnc(C)c2C)cc1)C(=O)O)OC[C@H](c1ccc(OC2CCCC2)cc1)O3` [Example 171, (S)-2-{[(3S,8S)-3-(4-Cyclopentyloxy-phenyl)-7-((S)-1-phenyl-propyl)-2,3,6,7,8,9-hexahydro-[1,4]dioxino[2,3-g]isoquinoline-8-carbonyl]-amino}-3-[4-(2,3-dimethyl-pyridin-4-yl)-phenyl]-propionic acid] it was 0.118 µM; in that of `CC[C@@H](c1ccccc1)N1Cc2cc3c(cc2C[C@H]1C(=O)N[C@@H](Cc1ccc(-c2ccnc(C)c2C)cc1)C(=O)O)OC[C@H](c1ccc(OCC(C)C)cc1)O3` [Example 172, (S)-3-[4-(2,3-Dimethyl-pyridin-4-yl)-phenyl]-2-{[(3S,8S)-3-(4-isobutoxy-phenyl)-7-((S)-1-phenyl-propyl)-2,3,6,7,8,9-hexahydro-[1,4]dioxino[2,3-g]isoquinoline-8-carbonyl]-amino}-propionic acid], 0.132 µM.
In the case of `CC[C@@H](c1ccccc1)N1Cc2cc3c(cc2C[C@H]1C(=O)N[C@@H](Cc1ccc(-c2ccnc(C)c2C)cc1)C(=O)O)OC[C@H](c1ccc(OC2CC4CCC2C4)cc1)O3` (stereo partly drawn) [Example 173, (S)-2-{[(3S,8S)-3-[4-(Bicyclo[2.2.1]hept-2-yloxy)-phenyl]-7-((S)-1-phenyl-propyl)-2,3,6,7,8,9-hexahydro-[1,4]dioxino[2,3-g]isoquinoline-8-carbonyl]-amino}-3-[4-(2,3-dimethyl-pyridin-4-yl)-phenyl]-propionic acid] it was 0.145 µM.
The same measure for `Cc1nccc(-c2ccc(C[C@H](NC(=O)[C@@H]3Cc4cc5c(cc4CN3C(=O)OC(C)(C)C)O[C@@H](c3ccc(OCc4ccc(Cl)c(Cl)c4)cc3)CO5)C(=O)O)cc2)c1C` [Example 174, (3S,8S)-8-{(S)-1-Carboxy-2-[4-(2,3-dimethyl-pyridin-4-yl)-phenyl]-ethylcarbamoyl}-3-[4-(3,4-dichloro-benzyloxy)-phenyl]-2,3,8,9-tetrahydro-6H-[1,4]dioxino[2,3-g]isoquinoline-7-carboxylic acid tert-butyl ester]: 0.153 µM; for `Cc1nccc(-c2ccc(C[C@H](NC(=O)[C@@H]3Cc4cc5c(cc4CN3Cc3ccccn3)O[C@@H](c3ccc(OCc4ccc(Cl)c(Cl)c4)cc3)CO5)C(=O)O)cc2)c1C` [Example 175, (S)-2-({(3S,8S)-3-[4-(3,4-Dichloro-benzyloxy)-phenyl]-7-pyridin-2-ylmethyl-2,3,6,7,8,9-hexahydro-[1,4]dioxino[2,3-g]isoquinoline-8-carbonyl}-amino)-3-[4-(2,3-dimethyl-pyridin-4-yl)-phenyl]-propionic acid]: 0.005 µM.
For the molecule `Cc1ccccc1CN1Cc2cc3c(cc2C[C@H]1C(=O)N[C@@H](Cc1ccc(-c2ccnc(C)c2C)cc1)C(=O)O)OC[C@H](c1ccc(OCc2ccc(Cl)c(Cl)c2)cc1)O3` [Example 176, (S)-2-{[(3S,8S)-3-[4-(3,4-Dichloro-benzyloxy)-phenyl]-7-(2-methyl-benzyl)-2,3,6,7,8,9-hexahydro-[1,4]dioxino[2,3-g]isoquinoline-8-carbonyl]-amino}-3-[4-(2,3-dimethyl-pyridin-4-yl)-phenyl]-propionic acid], the EC50 turned out to be 0.004 µM.
